These molecules were tested against T1, Mucosal addressin cell adhesion molecule 1/Integrin alpha-4/beta-7 (Homo sapiens, UniProt P13612+P26010+Q13477) (assay: BINDING INHIBITION ACTIVITY EVALUATION TEST).
T1 sequence (P13612 whole entry): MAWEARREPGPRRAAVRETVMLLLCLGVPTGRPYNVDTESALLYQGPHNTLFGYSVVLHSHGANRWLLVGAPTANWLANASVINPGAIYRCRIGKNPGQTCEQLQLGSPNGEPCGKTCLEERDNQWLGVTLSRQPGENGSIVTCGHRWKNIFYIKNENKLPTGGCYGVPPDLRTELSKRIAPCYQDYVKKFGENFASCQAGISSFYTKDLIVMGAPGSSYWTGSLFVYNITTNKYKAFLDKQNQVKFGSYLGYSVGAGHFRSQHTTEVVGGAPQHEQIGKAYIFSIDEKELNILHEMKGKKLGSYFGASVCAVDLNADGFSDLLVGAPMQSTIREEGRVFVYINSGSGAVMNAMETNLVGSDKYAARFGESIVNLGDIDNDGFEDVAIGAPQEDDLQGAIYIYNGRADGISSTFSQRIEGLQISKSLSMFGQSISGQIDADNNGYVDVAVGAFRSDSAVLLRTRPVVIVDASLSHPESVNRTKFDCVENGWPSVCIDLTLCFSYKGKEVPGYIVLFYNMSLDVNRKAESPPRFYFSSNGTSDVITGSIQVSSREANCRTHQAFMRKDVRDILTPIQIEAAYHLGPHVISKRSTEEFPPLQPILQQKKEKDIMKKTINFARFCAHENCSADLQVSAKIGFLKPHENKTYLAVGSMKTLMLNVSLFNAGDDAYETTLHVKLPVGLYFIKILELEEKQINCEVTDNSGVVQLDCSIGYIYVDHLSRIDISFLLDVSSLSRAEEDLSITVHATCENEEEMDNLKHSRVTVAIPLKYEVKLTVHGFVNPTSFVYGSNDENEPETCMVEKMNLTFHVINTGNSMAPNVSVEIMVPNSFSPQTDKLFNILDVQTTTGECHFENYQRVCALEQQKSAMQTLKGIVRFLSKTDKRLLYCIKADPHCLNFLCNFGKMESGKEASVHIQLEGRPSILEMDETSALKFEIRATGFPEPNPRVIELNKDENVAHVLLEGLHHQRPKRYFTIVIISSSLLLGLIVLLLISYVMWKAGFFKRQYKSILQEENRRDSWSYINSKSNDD
T1 sequence (P26010 whole entry): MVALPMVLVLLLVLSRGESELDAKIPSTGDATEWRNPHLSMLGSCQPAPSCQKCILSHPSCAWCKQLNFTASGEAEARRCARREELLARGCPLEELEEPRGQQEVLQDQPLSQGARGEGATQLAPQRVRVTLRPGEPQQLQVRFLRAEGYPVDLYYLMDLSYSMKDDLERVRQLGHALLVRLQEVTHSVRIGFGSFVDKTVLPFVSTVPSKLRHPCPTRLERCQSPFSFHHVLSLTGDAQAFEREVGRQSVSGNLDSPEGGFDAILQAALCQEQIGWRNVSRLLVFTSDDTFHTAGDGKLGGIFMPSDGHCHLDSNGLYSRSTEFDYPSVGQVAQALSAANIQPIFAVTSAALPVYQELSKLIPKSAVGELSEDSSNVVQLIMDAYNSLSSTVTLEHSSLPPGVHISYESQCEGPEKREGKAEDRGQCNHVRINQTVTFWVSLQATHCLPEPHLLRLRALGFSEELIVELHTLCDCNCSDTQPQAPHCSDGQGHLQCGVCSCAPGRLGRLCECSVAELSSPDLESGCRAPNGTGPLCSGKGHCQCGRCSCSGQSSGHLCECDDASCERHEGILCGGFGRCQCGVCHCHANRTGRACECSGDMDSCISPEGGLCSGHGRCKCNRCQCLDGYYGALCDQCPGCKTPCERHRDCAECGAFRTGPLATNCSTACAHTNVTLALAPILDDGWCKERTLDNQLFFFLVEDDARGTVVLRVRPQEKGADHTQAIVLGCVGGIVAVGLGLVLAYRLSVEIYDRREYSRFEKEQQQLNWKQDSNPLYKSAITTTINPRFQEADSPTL
T1 sequence (Q13477 whole entry): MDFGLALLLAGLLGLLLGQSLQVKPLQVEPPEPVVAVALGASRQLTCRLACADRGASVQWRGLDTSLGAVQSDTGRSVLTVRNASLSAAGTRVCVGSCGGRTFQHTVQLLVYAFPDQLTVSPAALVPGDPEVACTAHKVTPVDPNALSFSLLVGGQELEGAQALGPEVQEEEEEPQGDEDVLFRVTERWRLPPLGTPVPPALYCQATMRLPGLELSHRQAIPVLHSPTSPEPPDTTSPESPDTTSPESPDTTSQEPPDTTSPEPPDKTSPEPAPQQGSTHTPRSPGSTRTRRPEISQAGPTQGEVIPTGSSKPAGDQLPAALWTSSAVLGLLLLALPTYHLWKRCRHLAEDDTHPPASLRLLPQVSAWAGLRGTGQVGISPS
Description: Coat the 96-well microplate (Costar) with 50 μL of recombinant human MAdCAM-1 (R&D Systems) solution per well, and incubate overnight (12-18 hours) at 4° C. Wash three times with 150 μL of TBS buffer per well. Block plate with 150 μL per well with blocking buffer for 1 h at 37° C. Wash three times with 150 μL of TBS buffer per well. Dilute the recombinant human integrin α4β7 (R&D Systems) with TBS buffer containing 0.1% bovine serum albumin (BSA), then add to the 96 well plate with 50 μL per well. Add 1 μL of test compound or DMSO, cover, incubate at room temperature for 2 h, wash three times with 150 μL of TBS buffer per well. Dilute the anti-β7 antibody (R&D Systems) with 0.1% BSA TBS buffer, then add to the 96 well plate with 50 μL per well, cover, incubate at room temperature for 1 h, wash three times with 150 μL of TBS buffer per well. Add 50 μL of streptavidin-HRP (R&D Systems) per well, incubate at room temperature for 20 min, wash three times with 150 μL of TBS buffer per well. Add 50 μL of TMB substrate solution (Sigma) per well, incubate at room temperature for 5-30 min, and add 25 μL of stop solution per well to stop the reaction. Finally, measure absorbance at 450 nm with microplate reader (SpectraMax 340PC. Molecular Devices). Repeat the test to find the binding rate […] at each concentration when the absorbance of the well without the test substance is used as 100%, and calculate the concentration IC50 that causes 50% binding inhibition.

IC50 [nM] | SMILES
27.9 | COC(=O)[C@H](Cc1ccc(-n2c(=O)n(C)c3cccc(Cl)c32)cc1)NC(=O)c1c(Cl)cc(Cl)cc1Cl [US20240150287, Example 38]
5.34 | COC(=O)[C@H](Cc1ccc(-n2c(=O)n(C)c3cc(F)cc(F)c32)cc1)NC(c1ccccc1)(c1ccccc1)c1ccccc1 [US20240150287, Example 31]
16.1 | COC(=O)[C@H](Cc1ccc(N2C(=O)C3(CCOCC3)c3cccc(Cl)c32)cc1)NC(c1ccccc1)(c1ccccc1)c1ccccc1 [US20240150287, Example 7]
17.6 | COC(=O)[C@H](Cc1ccc(N2C(=O)C3(CC3)c3cc(F)c(Cl)cc32)cc1)NC(c1ccccc1)(c1ccccc1)c1ccccc1 [US20240150287, Example 8]

From BindingDB's records for patent US20240150287 (Hangzhou Apeloa Medicine Research Institute Co., 2024)
